Among the test systems are SN12C renal; DU-145 prostate; NCI/ADR-RES ovarian; ACHN renal; SNB-19 CNS; HS 578T breast; HOP-62 NSCLC; PC-3 prostate.
Holding throughout (assay): NCI-60 cell line screen, 48 h

Structures are written as SMILES.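 Cultured in 96-well plates, cells were exposed to test compound for 48 hours across five concentrations. TGI denotes the concentration required for complete inhibition of growth.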 Bounds are passed on as bounds.

With `CN(C)c1nc(NN)c2c(-c3ccccc3)c(-c3ccccc3)oc2n1`, the TGI in the test with SN12C renal, in the test on DU-145 prostate, with NCI/ADR-RES ovarian, with ACHN renal, with SNB-19 CNS and in the test on HS 578T breast was above 100 µM throughout.

With `CC(=O)N[C@H]1CCCC[C@@H]1OC(C)=O`, the TGI in the test with SN12C renal, in the test with HOP-62 NSCLC, with PC-3 prostate, with DU-145 prostate, in the test on NCI/ADR-RES ovarian and in the test on ACHN renal was above 100 µM in each case. Also, in the test on HS 578T breast, the TGI was above 100 µM.

Regarding `Cn1c(-c2ccc(/C=N\N3CCN(/N=C/c4ccc(-c5c[n+]6ccsc6n5C)cc4)CC3)cc2)c[n+]2ccsc12`, the TGI in the test with SN12C renal, with PC-3 prostate, in the test with DU-145 prostate, in the test on NCI/ADR-RES ovarian, with ACHN renal and with SNB-19 CNS was above 100 µM throughout. The same compound came in with a TGI in the test on HS 578T breast of 80.8 µM.

Turning to `Cc1n[nH]c(=O)n1/N=C/c1c[nH]c2ccccc12`, the TGI in the test with SN12C renal, in the test with HOP-62 NSCLC, in the test on PC-3 prostate, with DU-145 prostate, in the test on NCI/ADR-RES ovarian and in the test with ACHN renal was above 100 µM throughout. This compound registered a TGI with SNB-19 CNS above 100 µM.

`COc1ccc2c(c1)N=C1CSC(c3cc([N+](=O)[O-])ccc3Cl)N1C2` (stereo not given): the TGI is 89.6 µM in the test with SN12C renal; 97.2 µM with HOP-62 NSCLC; 59.3 µM in the test on PC-3 prostate; 74.1 µM in the test on NCI/ADR-RES ovarian; 54.1 µM in the test on ACHN renal; above 100 µM in the test with SNB-19 CNS. The same compound gave a TGI in the test on HS 578T breast above 100 µM.

For the compound `OC1CN2CCS[C@H]2C(O)C1O` (stereo not given in full), the TGI with HOP-62 NSCLC, in the test with PC-3 prostate, in the test with DU-145 prostate, in the test with NCI/ADR-RES ovarian, in the test with ACHN renal and in the test with SNB-19 CNS was above 100 µM each time. This compound also had a TGI in the test with HS 578T breast above 100 µM.

On to `O=C1CC2(CCNCC2)C(=O)N1N1CCCC1`, for which the TGI in the test on SN12C renal, in the test on HOP-62 NSCLC, in the test on PC-3 prostate, with DU-145 prostate, with NCI/ADR-RES ovarian and with ACHN renal was above 100 µM throughout. In addition, in the test with SNB-19 CNS, the TGI is above 100 µM.

`COc1ccc2oc(C(=O)N3CC(CCl)c4ccc([N+](=O)[O-])cc43)cc2c1` (stereo not given): the TGI in the test with HOP-62 NSCLC is 31.5 µM; with PC-3 prostate it was above 100 µM; in the test on DU-145 prostate, above 100 µM; in the test on NCI/ADR-RES ovarian it was above 100 µM; in the test on ACHN renal, above 100 µM; with SNB-19 CNS it was above 100 µM. Moreover, the TGI in the test on HS 578T breast was found to be 62.2 µM.

For `O=S(CCCl)c1c2ccccc2nc2ccccc12` (stereo not given), the TGI was 88.7 µM in the test on SN12C renal; above 100 µM with HOP-62 NSCLC; above 100 µM in the test with PC-3 prostate; above 100 µM with DU-145 prostate; above 100 µM with NCI/ADR-RES ovarian; above 100 µM with ACHN renal. Besides, the TGI with SNB-19 CNS was above 100 µM.

Take `NS(=O)(=O)c1ccc(CNc2nc(-c3cccs3)nc3ccc(I)cc23)cc1`: the TGI in the test with SN12C renal came out at 57.7 µM; in the test with HOP-62 NSCLC, 49.9 µM; in the test on PC-3 prostate, 53.3 µM; in the test with DU-145 prostate it was 30.3 µM; in the test with NCI/ADR-RES ovarian, 77.6 µM; in the test on ACHN renal, 58.3 µM. In addition, the TGI with SNB-19 CNS is 39.7 µM.

Regarding `CN(/N=C/C=N/N(C)C1=NCCCCN1)C1=NCCCCN1`, the TGI in the test with SN12C renal, in the test on HOP-62 NSCLC, in the test on PC-3 prostate, with NCI/ADR-RES ovarian, in the test with ACHN renal and in the test on SNB-19 CNS was above 100 µM in each case. In the test with HS 578T breast, this compound came in with a TGI above 100 µM.

Consider `CC1CCC2C(C(=O)O[C@H]3C4CCO[C@@H](OC5OC(CO)C(O)C(O)C5O)C4[C@@]4(CO)O[C@@H]34)=CO[C@@H](OC3OC(CO)C(O)C(O)C3O)C12` (stereo not given in full), for which the TGI in the test with SN12C renal, with HOP-62 NSCLC, with PC-3 prostate, in the test with DU-145 prostate, in the test on ACHN renal and in the test on SNB-19 CNS was above 10 µM each time. The compound also had a TGI with HS 578T breast above 10 µM.

`O=C(Cc1ccc(Cl)c(Cl)c1)N(CCc1ccc(Cl)c(Cl)c1)CCN1CCCC1`: the TGI was determined as 3.38 µM in the test with HOP-62 NSCLC; 3.77 µM in the test with PC-3 prostate; 4.59 µM in the test with DU-145 prostate; 4.73 µM in the test on NCI/ADR-RES ovarian; 3.28 µM in the test with ACHN renal; 4.9 µM in the test on SNB-19 CNS. In the test with HS 578T breast, this compound gave a TGI of 11.2 µM.

Regarding `O=C(NCCO)Nc1c(C(F)(F)F)cc(-c2ccccc2)[nH]c1=O`, the TGI in the test with SN12C renal, with HOP-62 NSCLC, with PC-3 prostate, in the test on DU-145 prostate, with NCI/ADR-RES ovarian and with ACHN renal was above 100 µM throughout. In the test with SNB-19 CNS, this compound registered a TGI above 100 µM.

For `COc1cccc(N2C(=O)CSC2c2cc(OC)c(OC)c(OC)c2)c1` (stereo not given), the TGI in the test on SN12C renal was above 100 µM; with PC-3 prostate, above 100 µM; in the test on DU-145 prostate it was 39.7 µM; in the test with NCI/ADR-RES ovarian, 91.4 µM; in the test on ACHN renal it was above 100 µM; in the test with SNB-19 CNS, 63 µM. Besides, the TGI with HS 578T breast is above 100 µM.

As to `CC(=O)Oc1ccccc1C(=O)O`, the TGI in the test on SN12C renal, with HOP-62 NSCLC, with PC-3 prostate, in the test with DU-145 prostate, with NCI/ADR-RES ovarian and with ACHN renal was above 100 µM each time. In the test on SNB-19 CNS, the TGI was above 100 µM.

Consider `CCOP(=O)(OCC)/C(C#N)=C/c1cccn1CC(C)C`, for which the TGI in the test on SN12C renal, with HOP-62 NSCLC, in the test with PC-3 prostate, in the test with DU-145 prostate, in the test with NCI/ADR-RES ovarian and in the test on ACHN renal was above 100 µM in each case. In addition, the TGI in the test on SNB-19 CNS was above 100 µM.

With `ClC1=C(Cc2ccccc2)Cc2ccc3c(c21)CCC3`, the TGI was above 100 µM in the test on SN12C renal; above 100 µM in the test with HOP-62 NSCLC; above 100 µM in the test on PC-3 prostate; above 100 µM in the test on DU-145 prostate; above 100 µM with ACHN renal; 52 µM in the test with SNB-19 CNS. In the test on HS 578T breast, this compound showed a TGI of 84.3 µM.

The record behind these values is PubChem BioAssay (NCI).
